Measured values taken from ChEMBL document CHEMBL1201862, “PubChem BioAssay data set” (2004).
Calls of active or inactive are those of the source.

Columns and labels:
[1] = biological target: Acyl-homoserine lactone acylase PvdQ (Pseudomonas aeruginosa (strain LESB58), UniProt Q9I194); experiment: P. aeruginosa PvdQ acylase inhibitors, dose response, biochemical, fluorescence, plate reader and imaging, cherry-picks (AID 493231)
HeLa [2] = experiment: HeLa cell cytotoxicity, dose response, cytotoxicity control, 48 h, plate reader, cherry-picks (AID 504942); assay type: functional, cell-based; details: Homo sapiens
CAAX prenyl protease 2 = CAAX prenyl protease 2 (Homo sapiens, UniProt Q9Y256); experiment: human Rce1 protease inhibitors, dose response, biochemical, yeast membranes, quenched-peptide fluorescence, cherry-pick (AID 588849)
[3] = NIH-3T3 fibroblast cytotoxicity, dose response, cytotoxicity control, cell-based, fluorescence, Alamar Blue, secondary assay (AID 2327); assay type: functional;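 note: NIH-3T3 mouse fibroblasts cultured with fluconazole at 8 µg/mL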
[4] = C. albicans growth with fluconazole, confirmation, fluorescence, retest (AID 2467); assay type: functional, cell-based
[5] = biological target: ATP-dependent molecular chaperone HSP82 (Candida albicans (strain WO-1) (Yeast), UniProt C4YTQ8); experiment: loss of DOC-induced GRE-beta-galactosidase reporter signal, dose response, Hsp90 inhibitor project, S. cerevisiae, luminescence (AID 2400); assay type: functional, cell-based;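 note: beta-galactosidase luminescence from glucocorticoid response element reporter as proxy for Hsp90 function; inhibitor potency where signal loss means Hsp90 inhibition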
[6] = biological target: Serine/threonine-protein phosphatase (Candida dubliniensis (strain CD36 / CBS 7987 / NCPF 3949 / NRRLY-17841) (Yeast), UniProt B9W6M3); experiment: calcineurin pathway inhibitors in yeast reporter, dose response, S. cerevisiae, CDRE-lacZ, luminescence, secondary (AID 2388); assay type: functional, cell-based;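 note: yeast reporter cells carrying a calcineurin-responsive lacZ construct stimulated with calcium chloride; luminescent beta-galactosidase reporter signal in whole cells rather than isolated phosphatase activity; potency for inhibition where a drop in reporter signal means calcineurin blockade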
[7] = Luminescence Cell-Based Dose Retest to Confirm Activators of 5'UTR Stem-Loop Driven Alpha-Synuclein mRNA Translation in H4 Neuroglioblastoma Cells. [Related pubchem assays (depositor defined):AID1813, AID1829]; assay type: functional
Troponin, cardiac muscle = Troponin, cardiac muscle (Homo sapiens, UniProt P19429+P45379+P63316); experiment: Fluorescence-based biochemical high throughput dose response assay for activators of the calcium sensitivity of cardiac Regulated Thin Filaments (RTF). [Related pubchem assays (depositor defined):AID493008, AID493018, AID504382, AID504383]; assay type: protein-complex assay
[8] = biological target: UDP-galactopyranose mutase (Mycobacterium tuberculosis, UniProt P9WIQ1); experiment: Inhibitors of Mycobacterium tuberculosis UDP-galactopyranose mutase (UGM) enzyme Measured in Biochemical System Using Plate Reader - 2105-02_Inhibitor_Dose_CherryPick_Activity. [Related pubchem assays (depositor defined):AID504439]
[9] = Luminescence Cell-Based Dose Response HTS to Identify Inhibitors of 5'UTR Stem-Loop Driven Prion Protein mRNA Translation in H4 Neuroglioblastoma Cells. [Related pubchem assays: 1827 (Project Summary), 1813 (Primary HTS)]; assay type: functional
[10] = inhibitors of firefly luciferase expression or activity, dose response, H4 neuroglioma cells, luminescence (AID 1990); assay type: functional, cell-based
[11] = Luminescence Cell-Based Dose Confirmation HTS to Identify Inhibitors of 5'UTR Stem-Loop Driven Alpha-Synuclein mRNA Translation in H4 Neuroglioblastoma Cells. [Related pubchem assays: 1827 (Project Summary), 1813 (Primary HTS)]; assay type: functional
[12] = Luminescence Cell-Based Dose Response HTS to Identify Activators of 5'UTR Stem-Loop Driven Prion Protein mRNA Translation in H4-C Neuroglioblastoma Cells. [Related pubchem assays: 1829 (Project Summary), 1814 (Primary HTS)]; assay type: functional
[13] = Luminescence Cell-Based Dose Response HTS to Identify Activators of Luciferase Translation or Activity in H4-C Neuroglioblastoma Cells. [Related pubchem assays: 1829 (Project Summary), 1814 (Primary HTS)]; assay type: functional
[14] = Luminescence Cell-Based Dose Response HTS to Identify Inhibitors of Luciferase Translation or Activity in H4-C Neuroglioblastoma Cells. [Related pubchem assays: 1813 (Primary HTS), 1827 (Project Summary)]; assay type: functional
[15] = Luminescence Cell-Based Dose HTS Response to Identify Inhibitors of 5'UTR Stem-Loop Driven Prion Protein mRNA Translation in H4-C Neuroglioblastoma Cells. [Related pubchem assays (depositor defined):AID1814, AID1827]; assay type: functional
Keap1/Nrf2 = Keap1/Nrf2 (Homo sapiens, UniProt Q14145); experiment: Keap1-Nrf2 protein-protein interaction inhibitors, dose response, biochemical, fluorescence polarization, cherry-picked samples (AID 588683)
ORF 73 = ORF 73 (Human herpesvirus 8, UniProt O40947); experiment: inhibitors of C-LANA binding to LBS DNA, dose response, biochemical, fluorescence polarization, cherry-picked samples (AID 504725); design: species or system Human gammaherpesvirus 8;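 note: fluorescence polarization of a labeled DNA duplex reporting LANA DNA binding; potency is for inhibitors that block LANA binding to the DNA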
HeLa [16] = experiment: HeLa cell cytotoxicity, dose response, cytotoxicity control, 24 h, cherry-picked samples (AID 504726); assay type: functional, cell-based; details: Homo sapiens;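 note: potency for cytotoxicity as loss of luminescence signal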
[17] = inhibitors of SNCA 5'UTR-driven reporter translation, confirmation, H4 neuroglioma cells, luminescence (AID 1988); assay type: functional, cell-based
[18] = biological target: Voltage-gated inwardly rectifying potassium channel KCNH2 (Homo sapiens, UniProt Q12809);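 note: confirmatory quantitative high-throughput screen measuring inhibition of hERG channel activity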
Sequence of Voltage-gated inwardly rectifying potassium channel KCNH2 (Q12809 whole entry): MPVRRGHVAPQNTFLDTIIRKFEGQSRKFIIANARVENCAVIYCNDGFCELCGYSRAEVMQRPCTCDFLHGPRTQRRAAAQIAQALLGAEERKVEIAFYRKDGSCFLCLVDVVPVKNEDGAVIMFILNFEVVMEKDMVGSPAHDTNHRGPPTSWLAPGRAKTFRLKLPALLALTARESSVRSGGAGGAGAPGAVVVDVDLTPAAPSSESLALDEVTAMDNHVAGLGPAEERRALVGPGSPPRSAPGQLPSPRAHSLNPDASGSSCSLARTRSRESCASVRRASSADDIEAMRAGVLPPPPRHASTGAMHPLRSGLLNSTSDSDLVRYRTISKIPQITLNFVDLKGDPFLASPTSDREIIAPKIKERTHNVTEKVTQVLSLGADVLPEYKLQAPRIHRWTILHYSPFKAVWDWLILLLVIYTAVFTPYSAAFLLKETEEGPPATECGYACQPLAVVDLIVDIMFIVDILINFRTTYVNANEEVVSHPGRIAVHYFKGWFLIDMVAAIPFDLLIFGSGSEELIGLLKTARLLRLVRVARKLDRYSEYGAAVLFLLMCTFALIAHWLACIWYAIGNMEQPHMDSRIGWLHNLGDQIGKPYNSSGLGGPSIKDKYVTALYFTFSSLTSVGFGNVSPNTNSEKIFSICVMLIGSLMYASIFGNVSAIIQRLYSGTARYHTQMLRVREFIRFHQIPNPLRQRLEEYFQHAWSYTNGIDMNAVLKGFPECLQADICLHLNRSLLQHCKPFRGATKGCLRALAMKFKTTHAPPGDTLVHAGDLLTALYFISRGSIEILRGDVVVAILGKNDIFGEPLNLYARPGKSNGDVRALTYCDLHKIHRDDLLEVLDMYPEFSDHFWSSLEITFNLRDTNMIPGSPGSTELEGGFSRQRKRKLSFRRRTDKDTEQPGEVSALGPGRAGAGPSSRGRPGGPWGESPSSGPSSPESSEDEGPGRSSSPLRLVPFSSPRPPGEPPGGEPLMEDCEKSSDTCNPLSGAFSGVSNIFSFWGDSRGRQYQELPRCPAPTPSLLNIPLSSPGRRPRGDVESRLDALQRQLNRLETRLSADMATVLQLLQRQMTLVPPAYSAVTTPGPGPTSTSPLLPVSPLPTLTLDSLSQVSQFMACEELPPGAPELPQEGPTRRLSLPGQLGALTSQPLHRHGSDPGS

Sequence of UDP-galactopyranose mutase (P9WIQ1 whole entry): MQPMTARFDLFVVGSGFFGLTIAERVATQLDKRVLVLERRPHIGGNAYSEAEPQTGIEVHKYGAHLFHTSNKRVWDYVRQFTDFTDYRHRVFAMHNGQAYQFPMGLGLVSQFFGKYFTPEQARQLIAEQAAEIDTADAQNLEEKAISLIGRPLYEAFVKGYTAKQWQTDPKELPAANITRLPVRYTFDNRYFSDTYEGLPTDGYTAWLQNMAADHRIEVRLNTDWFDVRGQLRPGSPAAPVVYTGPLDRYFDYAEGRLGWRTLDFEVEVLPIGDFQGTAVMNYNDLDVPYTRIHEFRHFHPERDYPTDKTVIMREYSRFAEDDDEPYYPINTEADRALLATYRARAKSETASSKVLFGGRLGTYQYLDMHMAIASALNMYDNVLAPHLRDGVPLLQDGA
Sequence of ORF 73 (O40947 whole entry): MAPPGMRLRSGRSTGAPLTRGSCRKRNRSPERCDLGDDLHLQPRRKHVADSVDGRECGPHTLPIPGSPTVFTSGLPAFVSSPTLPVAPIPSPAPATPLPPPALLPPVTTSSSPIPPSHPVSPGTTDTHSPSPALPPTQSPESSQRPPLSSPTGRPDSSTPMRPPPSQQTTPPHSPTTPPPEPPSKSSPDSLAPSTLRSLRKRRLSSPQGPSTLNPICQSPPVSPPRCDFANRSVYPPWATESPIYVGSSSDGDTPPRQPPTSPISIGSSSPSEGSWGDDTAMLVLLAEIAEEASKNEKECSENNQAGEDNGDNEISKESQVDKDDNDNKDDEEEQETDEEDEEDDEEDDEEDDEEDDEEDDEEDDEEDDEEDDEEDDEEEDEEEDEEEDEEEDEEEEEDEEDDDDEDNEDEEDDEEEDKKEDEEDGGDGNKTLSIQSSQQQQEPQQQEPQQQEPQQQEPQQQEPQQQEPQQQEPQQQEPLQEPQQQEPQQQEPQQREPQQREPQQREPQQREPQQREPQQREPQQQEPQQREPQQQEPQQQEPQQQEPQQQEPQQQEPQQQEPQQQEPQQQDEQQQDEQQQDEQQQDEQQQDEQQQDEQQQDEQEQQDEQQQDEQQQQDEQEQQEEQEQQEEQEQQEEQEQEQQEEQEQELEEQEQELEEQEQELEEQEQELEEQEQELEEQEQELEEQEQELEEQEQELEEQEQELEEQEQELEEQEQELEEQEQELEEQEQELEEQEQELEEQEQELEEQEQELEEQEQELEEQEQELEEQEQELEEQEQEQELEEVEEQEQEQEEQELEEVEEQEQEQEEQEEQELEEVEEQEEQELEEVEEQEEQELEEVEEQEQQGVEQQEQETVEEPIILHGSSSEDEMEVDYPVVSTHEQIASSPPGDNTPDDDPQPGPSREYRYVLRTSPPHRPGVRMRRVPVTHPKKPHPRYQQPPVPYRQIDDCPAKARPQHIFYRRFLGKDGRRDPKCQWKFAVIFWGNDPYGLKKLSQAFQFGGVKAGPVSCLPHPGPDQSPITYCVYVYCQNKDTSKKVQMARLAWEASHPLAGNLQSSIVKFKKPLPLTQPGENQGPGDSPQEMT
Sequence of CAAX prenyl protease 2 (Q9Y256 whole entry): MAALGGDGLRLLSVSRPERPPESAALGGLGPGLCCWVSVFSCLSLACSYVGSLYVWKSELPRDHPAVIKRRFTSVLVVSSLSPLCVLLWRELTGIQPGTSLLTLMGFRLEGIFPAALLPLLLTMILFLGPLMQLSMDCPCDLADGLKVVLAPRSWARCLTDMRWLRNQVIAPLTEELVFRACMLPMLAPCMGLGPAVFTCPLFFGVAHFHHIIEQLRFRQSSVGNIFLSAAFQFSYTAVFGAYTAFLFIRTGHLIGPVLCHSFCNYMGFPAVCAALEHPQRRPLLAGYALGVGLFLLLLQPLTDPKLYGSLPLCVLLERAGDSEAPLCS
Sequence of Acyl-homoserine lactone acylase PvdQ (Q9I194 24-193 limits assumed): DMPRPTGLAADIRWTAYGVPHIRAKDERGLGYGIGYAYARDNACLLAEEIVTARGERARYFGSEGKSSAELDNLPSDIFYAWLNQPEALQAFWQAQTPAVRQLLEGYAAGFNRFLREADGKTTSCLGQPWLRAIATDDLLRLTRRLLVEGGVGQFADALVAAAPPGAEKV
Sequence of Acyl-homoserine lactone acylase PvdQ (Q9I194 217-762 limits assumed): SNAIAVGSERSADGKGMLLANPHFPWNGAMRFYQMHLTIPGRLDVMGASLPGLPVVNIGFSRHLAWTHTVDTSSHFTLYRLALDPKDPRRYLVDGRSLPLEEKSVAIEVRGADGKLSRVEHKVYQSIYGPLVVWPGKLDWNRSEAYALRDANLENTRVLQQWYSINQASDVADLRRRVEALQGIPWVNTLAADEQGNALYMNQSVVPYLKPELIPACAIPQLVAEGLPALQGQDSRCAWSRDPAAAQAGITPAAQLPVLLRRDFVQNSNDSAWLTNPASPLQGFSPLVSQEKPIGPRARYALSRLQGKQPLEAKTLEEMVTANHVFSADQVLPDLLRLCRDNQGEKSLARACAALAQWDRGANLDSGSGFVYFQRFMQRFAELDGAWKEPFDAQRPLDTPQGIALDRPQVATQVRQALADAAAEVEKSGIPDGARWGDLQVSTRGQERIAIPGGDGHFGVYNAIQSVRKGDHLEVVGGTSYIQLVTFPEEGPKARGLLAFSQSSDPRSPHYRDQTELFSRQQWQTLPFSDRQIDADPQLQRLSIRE
Sequence of ATP-dependent molecular chaperone HSP82 (C4YTQ8 whole entry): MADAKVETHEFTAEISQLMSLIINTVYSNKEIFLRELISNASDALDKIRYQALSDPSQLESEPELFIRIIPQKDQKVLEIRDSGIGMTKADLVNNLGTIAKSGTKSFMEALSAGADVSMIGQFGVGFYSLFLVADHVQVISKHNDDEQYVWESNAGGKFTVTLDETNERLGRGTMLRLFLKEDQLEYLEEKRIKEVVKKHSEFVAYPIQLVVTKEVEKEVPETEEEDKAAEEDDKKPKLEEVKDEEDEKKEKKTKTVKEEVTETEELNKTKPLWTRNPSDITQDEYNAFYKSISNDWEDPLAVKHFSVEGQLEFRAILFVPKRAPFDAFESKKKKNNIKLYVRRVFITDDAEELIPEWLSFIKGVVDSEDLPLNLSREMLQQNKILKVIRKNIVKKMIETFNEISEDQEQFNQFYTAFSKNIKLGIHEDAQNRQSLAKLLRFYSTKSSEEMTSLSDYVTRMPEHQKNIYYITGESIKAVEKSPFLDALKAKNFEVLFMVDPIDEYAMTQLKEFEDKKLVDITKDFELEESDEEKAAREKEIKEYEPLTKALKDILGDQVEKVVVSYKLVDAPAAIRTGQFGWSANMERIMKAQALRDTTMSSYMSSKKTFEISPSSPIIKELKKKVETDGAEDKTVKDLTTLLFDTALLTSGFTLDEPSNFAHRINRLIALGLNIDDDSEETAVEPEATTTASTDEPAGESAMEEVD
Sequence of Serine/threonine-protein phosphatase (B9W6M3 whole entry): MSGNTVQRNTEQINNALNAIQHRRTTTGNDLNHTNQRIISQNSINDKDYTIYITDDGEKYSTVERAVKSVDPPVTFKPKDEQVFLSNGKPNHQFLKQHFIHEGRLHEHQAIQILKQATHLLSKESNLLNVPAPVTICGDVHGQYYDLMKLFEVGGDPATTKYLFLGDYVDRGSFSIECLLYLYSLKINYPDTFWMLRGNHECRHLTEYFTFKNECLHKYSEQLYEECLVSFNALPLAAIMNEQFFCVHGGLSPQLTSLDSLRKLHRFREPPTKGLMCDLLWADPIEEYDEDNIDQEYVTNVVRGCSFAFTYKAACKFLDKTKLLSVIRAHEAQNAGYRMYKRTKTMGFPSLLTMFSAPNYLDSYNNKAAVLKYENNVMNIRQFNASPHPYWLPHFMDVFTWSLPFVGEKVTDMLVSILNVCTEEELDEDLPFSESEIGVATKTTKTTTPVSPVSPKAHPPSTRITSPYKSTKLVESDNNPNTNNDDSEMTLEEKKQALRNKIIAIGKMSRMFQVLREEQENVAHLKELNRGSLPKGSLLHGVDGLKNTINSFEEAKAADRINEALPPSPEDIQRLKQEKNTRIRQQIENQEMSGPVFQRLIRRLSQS

## CN(Cc1ccccc1)c1ncnc2ccc(Br)cc12
[1]
  AC50: 4.49 µM (active)
HeLa [2]
  AC50: 115 µM (active)

## CC(C)C(NC(=O)c1ccco1)C(=O)NCC(c1ccco1)N1CCCCC1 (configuration not stated)
CAAX prenyl protease 2
  AC50: 48.9 µM (active)

## COc1cc2c(cc1NC(=O)c1ccco1)CCCC2
[3]
  EC50: > 150 µM (inactive)
[4]
  EC50: 841 nM (active)
[5]
  EC50: > 150 µM (inactive)
[6]
  EC50: > 180 µM (inactive)

## O=C(OCCN1C(=O)c2cccc3c(N4CCOCC4)ccc(c23)C1=O)c1ccc(Cl)cc1Cl
[7]
  EC50: 6.15 µM (inconclusive)
Troponin, cardiac muscle
  EC50: 1.11 µM (active)
[8]
  AC50: 5.23 µM (active)
[9]
  EC50: 12 µM (active)
[10]
  EC50: 9.06 µM (inconclusive)
[11]
  EC50: 6.15 µM (active)
[12]
  EC50: 722 nM (inconclusive)
[13]
  EC50: 2.14 µM (inconclusive)
[14]
  EC50: 2.14 µM (active)
[15]
  EC50: 722 nM (active)
Keap1/Nrf2
  AC50: 7.59 µM (active)
ORF 73
  AC50: 15.5 µM (active)
HeLa [16]
  AC50: 16.5 µM (active)
[17]
  EC50: 331 nM (active)

## Cl.c1ccc2c(c1)[IH]c1ccccc1-2
[18]
  Potency: 35.4813 µM
